Tests used:
[1] = molecular target: GRPR expressed in breast, prostate, and Gastro Intestinal Stromal Tumor (GIST) (Homo sapiens, UniProt P30550); conditions: non-clinical models; cited from earlier work
[2] = molecular target: GRPR (Homo sapiens, UniProt P30550); conditions: non-clinical models; cited from earlier work
[3] = Radiochemical purity (RCP) stability of 177Lu-NeoB drug product formulations over shelf life (72 h), lab-scale batches; assay type: physicochemical; conditions: Table 7: gentisic acid 1000 μg/mL, ascorbic acid 15000 μg/mL, Kolliphor HS 15 100 μg/mL, about 200 mCi, 10 mCi/mL; end of shelf life (72 hours)
Description: “Radiochemical purity”: is that percentage of the stated radionuclide that is present in the stated chemical or biological form. Radiochromatography methods, such as HPLC method or instant Thin Layer Chromatography method (ITLC), are the most commonly accepted methods for determining radiochemical purity in the nuclear pharmacy.
The stability of the ^177Lu-labelled product over 72 hours with the same antioxidant amount present in the Lutathera formulation. In particular, the following conditions are reproduced: […] step; • Kolliphor HS 15:1 mg added before the labelling step; • Peptide: Lu ratio≥1.5; […] during the formulation step; • Final volumetric Activity 10 mCi/mL; • Final pH 4-6; • Reaction buffer: Acetic acid/acetate buffer;
The radiolabelling tests are carried out both manually and automatically by using the MiniAlO synthesizer. The synthesis procedure is developed as follows: • 1. Transferring of ^177LuCl3 into reactor; • 2. Transferring of the reaction buffer into reactor. The reaction buffer is composed of sodium acetate buffer and gentisic acid. The acetate buffer allows to maintain the labelling pH between 4-5, while the gentisic acid protects the peptide from radiolysis during the labelling step; • 3. Addition of the NeoB1 solution containing Kolliphor HS 15 into reactor; • 4. Heating at 95° C. for 5 minutes; […]

Sequence of GRPR (P30550 whole entry): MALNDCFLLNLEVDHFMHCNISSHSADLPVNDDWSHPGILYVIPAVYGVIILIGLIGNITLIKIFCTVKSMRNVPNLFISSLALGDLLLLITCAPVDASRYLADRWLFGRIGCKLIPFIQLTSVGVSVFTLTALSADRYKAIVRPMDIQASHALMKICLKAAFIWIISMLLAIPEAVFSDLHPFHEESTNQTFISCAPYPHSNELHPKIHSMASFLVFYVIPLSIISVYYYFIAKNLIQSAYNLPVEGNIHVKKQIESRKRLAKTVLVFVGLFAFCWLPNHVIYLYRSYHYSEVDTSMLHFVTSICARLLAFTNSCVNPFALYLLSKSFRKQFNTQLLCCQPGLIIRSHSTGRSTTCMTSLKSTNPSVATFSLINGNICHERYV
Sequence of GRPR expressed in breast, prostate, and Gastro Intestinal Stromal Tumor (GIST) (P30550 whole entry): as above

SMILES | affinity to the GRPR [1] | degree of internalization upon binding to the specific receptor [2] | Radiochemical purity (%) at end of shelf life [3]
CC(C)CC(CC(C)C)NC(=O)[C@H](Cc1cnc[nH]1)NC(=O)CNC(=O)[C@@H](NC(=O)[C@H](C)NC(=O)[C@H](Cc1c[nH]c2ccccc12)NC(=O)[C@H](CCC(N)=O)NC(=O)[C@@H](Cc1ccccc1)NC(=O)COCC(=O)Nc1ccc(CNC(=O)CN2CCN(CC(=O)O)CCN(CC(=O)O)CCN(CC(=O)O)CC2)cc1)C(C)C [[^68Ga]-NeoB, metal not drawn] | high affinity | low degree of internalization | –
CC(C)CC(CC(C)C)NC(=O)[C@H](Cc1cnc[nH]1)NC(=O)CNC(=O)[C@@H](NC(=O)[C@H](C)NC(=O)[C@H](Cc1c[nH]c2ccccc12)NC(=O)[C@H](CCC(N)=O)NC(=O)[C@@H](Cc1ccccc1)NC(=O)COCC(=O)Nc1ccc(CNC(=O)CN2CCN(CC(=O)O)CCN(CC(=O)O)CCN(CC(=O)O)CC2)cc1)C(C)C [[^177Lu]-NeoB, metal not drawn] | – | – | over 95%

— US12685790B2, “Stable, concentrated radiopharmaceutical composition” (NOVARTIS AG, priority 2019, dated 2026)
